Measurements: US20240415845A1, “Compositions of Iboga Alkaloids and Methods of Treatment” (priority 2022, published 2024)

Tested on: special operations veterans with combat and/or blast exposure
Assay: Hamilton-Anxiety Rating Scale (HAM-A)
Assay type: in vivo, human
From the text: The pre-specified primary outcome was change in the World Health Organization Disability Assessment Schedule 2.0 (WHODAS) (Gold L. H. et al., J. Am. Acad. Psychiatry Law 42, 9 (2014)) from baseline to post-treatment, with change from baseline to the one-month follow-up a secondary outcome. Additional pre-specified secondary outcomes included post-treatment changes on the Clinician Administered PTSD Scale (CAPS-5; Weathers, F. W. et al., Psychol. Assess., 30, 383-395 (2018)), Montgomery-Åsberg Depression Rating Scale (MADRS; Montgomery, S. A., Br. J. Psychiatry J. Ment. Sci., 134, 382-389 (1979)) and the Hamilton-Anxiety Rating Scale (HAM-A; Bruss, G. S., et al., Psychiatry Res., 53, 191-202 (1994)). […] An additional dose of magnesium was administered approximately 12 hours later. To assess the significance of post-treatment changes, linear mixed effects (LME) models were used for each outcome measure. False Discovery Rate (FDR; Benjamini, Y. et al., J. R. Stat. Soc. Ser. B Methodol., 57, 289-300 (1995)) was applied to correct for multiple comparisons.
To further assess changes in comorbid psychiatric symptoms identified by the models, mean percent reduction, response rate, and remission rate according to the CAPS-5, MADRS and HAM-A (Table 1) were calculated. Response on the CAPS-5, MADRS, and HAM-A was defined as a reduction of at least 10 points (Mitchell, J. M. et al., Nat. Med. 27, 1025-1033(2021)), 50% (Leucht, S. et al., J. Affect. Disord. 210, 287-293 (2017)), and 50% (McIntyre, A. et al., Depress. Anxiety 24, 487-494 (2007)), respectively; remission as loss of diagnosis and a total score below 12 (Mitchell, J. M. et al. supra), <8 (Leucht, S. et al. supra), and <8(McIntyre, A. et al., supra), respectively. One participant's baseline scores met criteria for remission in all three scales and so were excluded from the calculation of response and remission rates, leaving 29 participants in these specific analyses.
With subjects in the fasting state, an intravenous infusion of 1 gram of magnesium sulfate was administered 1-2 hours prior to treatment. […] Medical staff (MD, RN, or EMT) were onsite at a ratio of at least 1 staff per 2 patients throughout treatment for monitoring and management, but no specific coaching or psychological support was provided during treatment.
Clinician administered scales included CAPS-5 (Clinician-administered PTSD Scale for DSM-5), which is a gold standard assessment of PTSD symptom severity; MADRS (Montgomery-Asberg Depression Rating Scale), a measure for depressive symptom severity: and Hamilton-Anxiety Rating Scale (HAM-A) (Shear, M. K. et al., Depress. Anxiety 13, 166-178 (2001)) a measure for anxiety symptom severity: SCID-5 (Structured Clinical Interview for DSM-5) Overview for a historical and environmental context of symptom presentation: MINI DSM-5 (Mini International Neuropsychiatric Interview from DSM-5) for a structured psychodiagnostics assessment: BAT-L (Boston Assessment of TBI-Lifetime) for a lifetime history of TBI and blast exposure: and Ohio State University TBI Identification Method (Short Form) for a lifetime history of TBI. MADRS testing provides an indication of depressive symptoms, CAPS-5 provides an indication of PTSD and SIGH-A provides an indication of anxiety. Collectively these overlap to provide indication of mood, concentration, sleep and tension.
To assess anxiety symptoms, the Hamilton Anxiety Rating Scale was used. This scale includes 14-items assessing both psychic and physical symptoms of anxiety. Items are rated on a scale from 0 (no symptoms) to 4 (severe symptoms). Total score ranges were: no or minimal anxiety (≤7), mild (8-14), moderate (15-23), and severe anxiety symptoms (≥24) (Matza et al., Int. J. Methods Psychiatr. Res. 19, 223-232 (2010))).

[1] = 1-mo. post, only participants meeting relevant MINI diagnostic criteria
[2] = 1-mo. post, only participants with mild TBI
[3] = 1-wk. post, only participants meeting relevant MINI diagnostic criteria
[4] = 1-wk. post, only participants with mild TBI

CCC1CC2CC3c4[nH]c5ccc(OC)cc5c4CCN(C2)C13 (stereo not shown) [ibogaine, Ibogaine]
HAM-A % Reduction vs Baseline [1]: 80% ± 23% | HAM-A Remission Rate [1]: 71% | HAM-A Response Rate [1]: 86% | HAM-A score (1-mo. post, only participants meeting relevant MINI diagnostic criteria at baseline (N 14), baseline 23.8 ± 7.6): 5.1 | HAM-A % Reduction vs Baseline [2]: 82% ± 21% | HAM-A Remission Rate [2]: 85% | HAM-A Response Rate [2]: 93% | HAM-A score (1-mo. post, only participants with mild TBI (N 28), baseline 20.7 ± 8.6): 3.7 | HAM-A score (1-wk post, only participants meeting relevant MINI diagnostic criteria at baseline (N 14), baseline 23.8 ± 7.6): 4.2 | HAM-A % Reduction vs Baseline [3]: 82% ± 14% | HAM-A Remission Rate [3]: 86% | HAM-A Response Rate [3]: 100% | HAM-A % Reduction vs Baseline [4]: 82% ± 19% | HAM-A Remission Rate [4]: 89% | HAM-A Response Rate [4]: 96% | HAM-A score (1-wk. post, only participants with mild TBI (N 28), baseline 20.7 ± 8.6): 3.3 | HAM-A, effect size D (baseline vs 1-mo. post, only participants meeting relevant MINI diagnostic criteria (N 14)): 2.33 | HAM-A, effect size D (baseline vs 1-mo. post, only participants with mild TBI (N 28)): 2.07 | HAM-A, effect size D (baseline vs 1-wk post, only participants with mild TBI (N 28)): 2.02 | HAM-A, effect size D (baseline vs 1-wk. post, only participants meeting relevant MINI diagnostic criteria (N 14)): 2.52 | HAM-A, effect size D (baseline vs one-month post, all participants): 2.13 | HAM-A, effect size D (baseline vs one-week post, all participants): 2.06 | HAM-A anxiety symptom severity score (four days after (immediate post) treatment, baseline about 21 (FIG. 5A)): about 7 | HAM-A effect size (four days after treatment relative to baseline (FIG. 5A)): 1.81 | subjects scoring below the mild anxiety range (HAM-A) (one month post treatment (FIG. 5B)): 90% | HAM-A effect size (one month post treatment relative to baseline (FIG. 5A)): 1.82 | HAM-A Remission Rate (one-month post, 29 participants, remission = score <8): 83% | HAM-A Response Rate (one-month post, 29 participants, response = reduction of at least 50%): 93% | HAM-A score (one-month post, all participants, baseline 20.8 ± 8.5, mean ± SD): 3.9 | HAM-A % Reduction vs Baseline (one-month post, all participants, mean ± SD): 81% ± 21% | HAM-A Remission Rate (one-week post, 29 participants, remission = score <8): 86% | HAM-A Response Rate (one-week post, 29 participants, response = reduction of at least 50%): 97% | HAM-A score (one-week post, all participants, baseline 20.8 ± 8.5, mean ± SD): 3.6 | HAM-A % Reduction vs Baseline (one-week post, all participants, mean ± SD): 81% ± 19%
